According to patent US20180353568A1 (priority 2015, published 2018):
Entries after “also recorded” stand apart in the source; their conditions may differ.

What was measured:
[1] = tested on: envelope protein GP of Ebola virus (HIV-luc/EBOV-GP pseudotype virus); type: cell-based
[2] = tested on: envelope G protein of vesicular stomatitis virus, VSV-G (HIV-luc/VSV-G pseudotype virus); type: cell-based
[3] = tested on: HIV-luc/Zaire EBOV-GP2014 pseudotype virus; type: cell-based, Ebola virus
[4] = tested on: HIV-luc/Zaire EBOV-GP2014 pseudotype virus; type: cell-based, Ebola virus; remark: listed apart in the source
[5] = tested on: HIV-luc/Zaire EBOV-GP2014 pseudotype virus; type: cell-based, Ebola virus; remark: listed apart in the source
[6] = tested on: HIV-luc/Zaire EBOV-GP2014 pseudotype virus; type: cell-based, Ebola virus; remark: listed apart in the source
[7] = tested on: 293T cells

## teicoplanin
[1]
  inhibitory effect on the envelope protein of Ebola virus, EBOV-GP (entry): can inhibit the entry of Ebola virus; also recorded: good inhibitory effect
[1]; read-out: IC50 of teicoplanin (inhibition of Ebola pseudovirus infecting 293T cells)
  IC50: 0.2 µM
[2]
  inhibitory effect on the envelope G protein of vesicular stomatitis virus, VSV-G: no inhibitory effect
[3]
  inhibitory effect on virus in A549 cells: good inhibitory effect
[4]
  inhibitory effect on virus in Hela cells: good inhibitory effect
[5]
  inhibitory effect on virus in THP-1 cells: good inhibitory effect
[6]
  inhibitory effect on virus in HUVECs: good inhibitory effect
[7]
  cytotoxicity in 293T cells: non-cytotoxic
  toxicity (FIG. 3, CC50 test): low
